# Assay results published in ChEMBL document CHEMBL3217414, “Trifluoromethyl derivatives of canonical nucleosides: synthesis and bioactivity studies” (Medchemcomm, 2013).
# Key:
# Hepatitis B virus = experiment: Antiviral activity against Hepatitis B virus; format: functional, organism-based
# L6 = experiment: Cytotoxicity against rat L6 cells assessed as inhibition of cell viability after 48 hrs by MTT assay; format: cell-based; conditions: for IC50: Rattus norvegicus, L6, 48 h
# HaCaT = experiment: Cytotoxicity against human HaCaT cells assessed as inhibition of cell viability after 48 hrs by MTT assay; format: cell-based; conditions: for IC50: Homo sapiens, HaCaT
# DU-145 = experiment: Cytotoxicity against human DU145 cells assessed as inhibition of cell viability after 48 hrs by MTT assay; format: functional, cell-based; conditions: for IC50: DU-145, 48 h
# C6 = experiment: Cytotoxicity against rat C6 cells assessed as inhibition of cell viability after 48 hrs by MTT assay; format: functional, cell-based; conditions: for IC50: C6, 48 h
# MCF7 = experiment: Cytotoxicity against human MCF7 cells assessed as inhibition of cell viability after 48 hrs by MTT assay; format: functional, cell-based; conditions: for IC50: MCF7, 48 h
IC50 (Hepatitis B virus),Structure (SMILES),IC50 (L6),IC50 (HaCaT),IC50 (DU-145),IC50 (C6),IC50 (MCF7),"inhibition (INH) (L6; rat, l6, 48 h)","inhibition (INH) (HaCaT; human, hacat)",inhibition (DU-145),inhibition (C6),inhibition (MCF7)
10 µM,Nc1ccn([C@H]2C=C(C(F)(F)F)[C@@H](CO)O2)c(=O)n1,–,–,–,–,–,–,–,–,–,–
–,O=c1[nH]cnc2c1nc(C(F)(F)F)n2[C@@H]1O[C@H](CO)[C@@H](O)[C@H]1O,195 µM,170 µM,131 µM,142 µM,105 µM,–,–,–,–,–
–,Nc1ccn([C@H]2C[C@H](O)[C@@H](CO)O2)c(=O)n1 [DOXECITINE],> 250 µM,> 250 µM,> 250 µM,> 250 µM,> 250 µM,–,–,–,–,–
5 µM,Nc1ncnc2c1ncn2[C@H]1C=C(C(F)(F)F)[C@@H](CO)O1,–,–,–,–,–,–,–,–,–,–
–,O=c1[nH]cnc2c1ncn2[C@@H]1O[C@H](CO)[C@@H](O)[C@H]1O [INOSINE],> 250 µM,> 250 µM,> 250 µM,> 250 µM,> 250 µM,–,–,–,–,–
–,Nc1nc(=O)n([C@H]2C[C@H](O)[C@@H](CO)O2)cc1C(F)(F)F,155 µM,140 µM,25 µM,44 µM,32 µM,–,–,–,–,–
–,Nc1nc2c(nc(C(F)(F)F)n2[C@H]2C[C@H](O)[C@@H](CO)O2)c(=O)[nH]1,234 µM,210 µM,72 µM,92 µM,76 µM,Dose-dependent effect,Dose-dependent effect,Dose-dependent effect,Dose-dependent effect,Dose-dependent effect
–,Nc1nc(O)c2ncn([C@H]3C[C@H](O)[C@@H](CO)O3)c2n1 [DEOXYGUANOSINE],> 250 µM,> 250 µM,> 250 µM,> 250 µM,> 250 µM,–,–,–,–,–
–,Nc1ncnc2c1nc(C(F)(F)F)n2[C@H]1C[C@H](O)[C@@H](CO)O1,225 µM,214 µM,50 µM,81 µM,65 µM,–,–,–,–,–
–,Nc1ncnc2c1ncn2[C@H]1C[C@H](O)[C@@H](CO)O1 [DEOXYADENOSINE],> 250 µM,> 250 µM,> 250 µM,> 250 µM,> 250 µM,–,–,–,–,–
